# What was measured:
# [1] = system: HEKa cells; test: Pretreatment of cells with calcitriol, cell viability assay with chemotherapy drugs; format: cell-based, human
# Source text: Then these pretreated cells were utilized to set up the cell-based assay. […] The four cancer cell lines continued to grow and were not altered in their general morphological appearances. […] For this cell line, a new batch of cells were started and were exposed to only a single passage in the presence of calcitriol, prior to testing in the presence of the chemotherapy drugs. Three commonly used chemotherapy drugs (doxorubicin, cisplatin and erlotinib) were selected to evaluate calcitriol treated cells. […] In these experiments, the commercial drugs were serially diluted, starting at a concentration 4-times higher than the final desired concentration for cell incubation. […] The assay was carried out according to the previously described method in order to provide consistency and allow direct comparison. The result was based upon measurement of the total number of viable cells. […] Thus, a topical application of calcitriol could be applied at the same time as the systemic delivery of the chemotherapy. A staged application is not required.
# [2] = system: NCI-ES-0808; test: Cell growth/viability assay, calcitriol with or without chemotherapy drug; format: cell-based
# [3] = system: HEKa cells; test: Antibody microarray (Panorama XP725) of calcitriol-treated HEKa; format: cell-based, human; settings: calcitriol-treated (24 hour), 3-hour sample as baseline
# Procedure: Briefly, the treated HEKa cells were first harvested and then extracted to obtain a soluble protein supernatant. […] The excess dye was removed from the protein sample, and the resulting labeled protein samples were used for microarray incubation. To determine the expression level of a particular target protein at a later time point (e.g., at hour 6 or 24) relative to that at an earlier time point (e.g., at hour 3), the samples were labeled by different labels (e.g., 3-hour extract labeled with Cy3,6-hour or 24-hour extract labeled with Cy5). […] After incubation with the microarray chip (according to manufactures recommended protocols), the chips were washed and dried. The microarrays were then scanned with a fluorescent laser scanner to measure the relative fluorescence intensity of the Cy3 and Cy5 dyes. If the amount of a particular type of target protein increased (or decreased) over time, more (or less) of the dye associated with the later time point (e.g., Cy5) will be retained by the microarray. For example, in this experiment, the earliest time point (e.g., 3-hour) was used as a baseline to determine the relative protein expression level at two later time points (e.g., 6-hour vs. 24-hour). If more Cy5 is retained by the array between 6-24 hours, the expression level of the target protein increased over the time period. […]
# [4] = system: MIAC51 (chloroleukemia cells); test: Rats transplanted with chloroleukemia: protection of cancer cells from chemotherapy; format: in vivo; settings: Long Evans rats injected with MIAC51, cyclophosphamide; preliminary results
# Procedure: For experiments in which rats were transplanted with chloroleukemia, on Day 5 after birth, rats were randomly divided into three groups of 45 each. All rats received 1×10^5 chloroleukemic cell line MIAC51 (i.p.) in 0.1 mL of serum free (SF) RPMI. MIAC51 were cultured in RPMI 1640 supplemented with L-glutamine and 10% fetal bovine serum at 37° C. in a 5% CO2, 100% humidity incubator. Cells were grown to 50% confluency (1.5×106 mL) collected in 50 mL conical tubes, centrifuged at 600 g×10 min. at room temperature and resuspended in SF-RPMI at a concentration of 1×10^6/mL. Group 1 rats received no further treatment. Group 2 rats received topical vehicle and CTX on day 13. […] Topical applications were performed as described above.
# On day 23 after birth, a sample of blood was taken from all rats and differentials performed. Rats with leukemia were sacrificed, rats without leukemia were kept and a second differential performed on day 31, at any point if leukemia was detected, animals were sacrificed by CO2 asphyxiation.
# [5] = in vivo; settings: Gottingen, minipig, topical
# Source text: At the end of the study, the skin was reflected from a ventral midline incision, and sections of treated and untreated skin were collected and preserved. Sections of each 6×6 cm dosing site were first thoroughly surface washed with a mild soap and water mixture (e.g., 1% Ivory Soap in water or equivalent) to remove any residual topical test formulation. The washed skin sections were then wiped clean with ethanol, and were excised down to and including the adipose layer. If the area to be excised is larger than the dosed area, the dosed area was demarked with indelible ink to delineate the skin area that was dosed. The 1.5 cm×1.5 cm sections were laid flat, wrapped in two layers of Saran wrap (or equivalent) and flash frozen in liquid nitrogen. The samples were stored at −70° C. and shipped on dry ice via overnight courier for analysis. Each skin section was identified as appropriate (e.g., animal identification, study number, date, etc).
# Upon arrival at the analysis site, skin sections were placed in water tight plastic bag and thawed by emersion in warm water (˜30° C.-35° C.). Each skin section was gently rinsed with distilled de-ionized water to remove any residual test article and blood. All subcutaneous tissue (e.g., adipose) was removed by manual scalpel ablation. Within the central region of the dosed area, four individual 1 cm^2 circles (replicates) were demarked, and each site was subsequently identified and the actual area recorded. The replicate test sites were then excised from the skin sheet using a 1 cm^2 punch. The skin sections were weighed and the weight recorded. […] This process removed the stratum corneum and any residual surface dose.
# Following tape stripping, the skin was separated into epidermis (sans stratum corneum, simply referred to herein after as “epidermis”) and dermis by heat exposure to 60° C. for approximately 1-1.5 minutes. The skin layers were then teased apart using fine-tipped forceps or scalpel. The epidermis and dermis were weighed and the weight recorded.
# For extraction, all skin samples were extracted in 1 mL of absolute ethanol (Sigma-Aldrich, USP/NF Grade). Tape strips were extracted in 5 mL acetonitrile (EMD, HPLC Grade). All extractions were conducted at room temperature for approximately 24 hours. An amount of 500 μL of the tape strip extract was dried by vacuum centrifugation and reconstituted in 100 μL absolute acetonitrile. The epidermal extract was also dried and reconstituted in 100 μL 80:20 ethanol:water.
# Lower limit of detection is estimated at 0.4 ng/mL.
# However, the concentration reported, as μg/mg, is determined by the differential total sample weight before layer separation minus the weights of the epidermis and dermis for that sample (rather than by actual weight due to its adherence to the tape strips). Epidermal and dermal samples are reported as tissue concentration (ng/mg) using the amount measured from the sample divided by actual wet weight of the skin layer.
# [6] = system: HepG2 (liver cancer); test: Cell growth/viability assay, calcitriol with or without chemotherapy drug; format: cell-based
# [7] = system: HEKa cells; test: Protective effect of calcitriol on HEKa cells against chemotherapeutic drugs; format: cell-based, human; settings: 0.1 μg/mL calcitriol
# Procedure: These include: erlotinib (Tarceva), an EGFR Tyr kinase inhibitor; gefutubib (Iressa), an EGFR Tyr kinase inhibitor; sorafenib, inhibitor of several Tyr kinases (Raf, VEGF-R2, c-kit, PDGR-R); Dasatinib, a BCR/ABL Tyr kinase inhibitor; and staurosporin, a relatively nonspecific kinase inhibitor.
# The drug treatment period was usually three days. At the end of the three days, the background OD of the 96-well plate was read at 280 nm, before 20 μL of the “Substrate Cell Titer 96 Aqueous One Solution Reagent” (Promega) was added to each well. The plate was returned to the 37° C. incubator, and its OD at 490 nm was read each hour until an OD of approximately 1.5 was reached. The net OD increase was calculated by subtracting the pre-substrate OD reading.
# The impact of the drug on the cells was calculated by comparing the OD at different concentrations in relation to the OD of the control wells (without the drug).
# [8] = Preliminary animal toxicology study; format: in vivo; settings: dose of about 100 μg
# [9] = system: NIH-3T3 (immortalized fibroblast); test: Cell growth/viability assay, calcitriol with or without chemotherapy drug; format: cell-based
# [10] = system: PaCa2 (pancreatic carcinoma); test: as above; format: cell-based
# [11] = system: SkBr-3 (breast adenocarcinoma cancer, Her2 overexpressed); test: as above; format: cell-based
structure (smiles),measurement,setting,value
"C=C1/C(=C\C=C2/CCC[C@]3(C)[C@@H]([C@H](C)CCCC(C)(C)O)CC[C@@H]23)C[C@@H](O)C[C@@H]1O [Calcitriol, 1,25-dihydroxyvitamin D3]",growth of HEKa cells after prolonged calcitriol exposure,[1]; 0.1 μg/mL calcitriol for two cell passages,stopped growing
same,"chemoprotective effect, pre-treatment group versus simultaneous treatment group","[1]; 0.1 μg/mL calcitriol, doxorubicin, cisplatin, erlotinib",nearly identical
same,effect of calcitriol on cell growth,[2],no significant growth promoting or growth inhibiting effects
same,effect on the cytotoxic effect of Doxorubicin,[2],did not appear to appreciably alter
same,Target Proteins with Decreased (>2-fold) Protein Levels Following Calcitriol Treatment (value = protein),[3],Transforming Growth Factorb pan and WAVE and Protein Tyrosine Phosphatase PEST and CD40 and Crk II and Growth Factor Independence1 and Serine Threonine Protein and Cathepsin D
same,protection of the cancer cells from chemotherapy by topical calcitriol,[4],have not shown protection of the cancer cells
same,concentration at 7 days,"[5]; female, stratum corneum (tape strips), 1 μg/mL",30 ± 50 ng/g
same,concentration at 7 days,"[5]; female, stratum corneum (tape strips), 3 μg/mL",40 ± 60 ng/g
same,concentration at 7 days,"[5]; female, stratum corneum (tape strips), 10 μg/mL",50 ± 40 ng/g
same,concentration at 7 days,"[5]; female, stratum corneum (tape strips), 30 μg/mL",640 ± 370 ng/g
same,concentration at 7 days,"[5]; female, 1 μg/mL",0 ng/g
same,concentration at 7 days,"[5]; female, 3 μg/mL",0 ng/g
same,concentration at 7 days,"[5]; male, stratum corneum (tape strips), 1 μg/mL",1540 ± 790 ng/g
same,concentration at 7 days,"[5]; male, stratum corneum (tape strips), 3 μg/mL",1630 ± 250 ng/g
same,concentration at 7 days,"[5]; male, stratum corneum (tape strips), 10 μg/mL",2020 ± 390 ng/g
same,concentration at 7 days,"[5]; male, stratum corneum (tape strips), 30 μg/mL",1510 ± 890 ng/g
same,concentration at 7 days,"[5]; male, stratum corneum (tape strips), 100 μg/mL",4520 ± 1210 ng/g
same,effect on the cytotoxic effect of Doxorubicin,[6]; Hep-G2,did not appear to appreciably alter
same,5-FU ED50 curve with versus without calcitriol,"[6]; Hep-G2, 0.1 μg/mL calcitriol",not significantly different
same,"response to other drugs (doxorubucin, cisplatin, erlotinib) after calcitriol exposure","[6]; Hep-G2, 0.1 μg/mL calcitriol for two passages",did not alter
same,concentrations giving calcitriol growth inhibition,[6]; HepG2,> 0.5 µg/mL
same,concentrations giving calcitriol growth stimulation,[6]; HepG2,0.05 to 0.25 µg/mL
same,protective effect against 5-FU,[7],mild protective effect
same,protective effect against Paxlitaxol (paclitaxel),[7],some protective effects
same,protective effect against gemcitabine,[7],mild protective effect
same,protective effect against irinotecan,[7],positive protective effect
same,protective effect against tamoxifen,[7],weak
same,protective effect against the cytotoxic effect of doxorubicin,[7],did not appear to provide a significant protective effect
same,protection against alkylating agents cisplatin and carboplatin,[7]; low dosage levels,moderate level of protection
same,"protective effect against kinase inhibitor drugs (erlotinib, gefitinib, sorafenib, dasatinib, staurosporin)",[7]; low drug dosage levels,protected the HEKa cells
same,dermal irritation,[8],no dermal irritation
same,skin penetration,[8],excellent epidermal penetration without substantial dermal penetration
same,effect of calcitriol on cell growth,[9],no significant growth promoting or growth inhibiting effects
same,effect on the cytotoxic effect of Doxorubicin,[9],did not appear to appreciably alter
same,effect of calcitriol on cell growth,[10]; PaCa2,no significant growth promoting or growth inhibiting effects
same,effect on the cytotoxic effect of Doxorubicin,[10]; PaCa-2,did not appear to appreciably alter
same,5-FU ED50 curve with versus without calcitriol,"[10]; PaCa-2, 0.1 μg/mL calcitriol",not significantly different
same,"response to other drugs (doxorubucin, cisplatin, erlotinib) after calcitriol exposure","[10]; PaCa-2, 0.1 μg/mL calcitriol for two passages",did not alter
same,effect of calcitriol on cell growth,[11],no significant growth promoting or growth inhibiting effects
same,effect on the cytotoxic effect of Doxorubicin,[11],did not appear to appreciably alter
